Measurements reported in patent US20230416203A1, “POTENT AND SELECTIVE INHIBITORS OF THE CALCIUM-ACTIVATED POTASSIUM CHANNEL, KCA3.1, FOR USE AS PLATFORM THERAPEUTICS” (priority 2020, published 2023).

Assay: Two-week non-GLP toxicology in mice (clinical signs, body weight, body weight gain, food consumption, hematology, clinical chemistry, organ weights, histopathology)
Settings: for Organ weights relative to body weight (%), Adrenals / Organ weights relative to body weight (%), Brain / Organ weights relative to body weight (%), Heart / Organ weights relative to body weight (%), Kidneys / Organ weights relative to body weight (%), Liver / Organ weights relative to body weight (%), Ovaries / Organ weights relative to body weight (%), Spleen / Organ weights relative to body weight (%), Thymus / Organ weights relative to body weight (%), U / ALB / ALT / AST / BUN / Basophils / CREA / Eosinophils / GLU / HCT / HGB / LDLC / Lympthocytes / MCH / MCHC / MCV / Monocytes / Neutrophils / PLT / RBC / Reticuloxyte Count / TBIL / TGL / TP / Urea / WBC / Body weight gain (%) / ALP / Lymphocytes / Monosytes / Organ weights relative to body weight (%), Epididy / Organ weights relative to body weight (%), Testes / Organ weights relative to body weight (%), Thy: mean
[1] = 25 and 50 mg/kg BID, 2 weeks, mice
[2] = G2 25 mg/kg/BID oral, Treatment Day 1
[3] = G2 25 mg/kg/BID oral, Treatment Day 4
[4] = G2 25 mg/kg/BID oral, Treatment Day 8
[5] = G2 25 mg/kg/BID oral, Treatment Day 11
[6] = G2 25 mg/kg/BID oral, Treatment Day 14
[7] = G3 50 mg/kg/BID oral, Treatment Day 1
[8] = G3 50 mg/kg/BID oral, Treatment Day 4
[9] = G3 50 mg/kg/BID oral, Treatment Day 8
[10] = G3 50 mg/kg/BID oral, Treatment Day 11
[11] = G3 50 mg/kg/BID oral, Treatment Day 14
[12] = female mice, 25 mg/kg ROD oral, 2 weeks
[13] = female mice, 25 mg/kg/BID oral, 2 weeks
[14] = female mice, 25 mg/kg/BID oral, treatment day 1 to 4
[15] = female mice, 25 mg/kg/BID oral, treatment day 1 to 8
[16] = female mice, 25 mg/kg/BID oral, treatment day 1 to 11
[17] = female mice, 25 mg/kg/BID oral, treatment day 1 to 14
[18] = female mice, 50 mg/kg/BID oral, 2 weeks
[19] = female mice, 50 mg/kg/BID oral, treatment day 1 to 4
[20] = female mice, 50 mg/kg/BID oral, treatment day 1 to 8
[21] = female mice, 50 mg/kg/BID oral, treatment day 1 to 11
[22] = female mice, 50 mg/kg/BID oral, treatment day 1 to 14
[23] = female mice, 50 mg/kg:BID oral, 2 weeks
[24] = male mice, 25 mg/kg/BID oral, 2 weeks
[25] = male mice, 25 mg/kg/BID oral, treatment day 1 to 4
[26] = male mice, 25 mg/kg/BID oral, treatment day 1 to 8
[27] = male mice, 25 mg/kg/BID oral, treatment day 1 to 11
[28] = male mice, 25 mg/kg/BID oral, treatment day 1 to 14
[29] = male mice, 50 mg/kg/BID oral, 2 weeks
[30] = male mice, 50 mg/kg/BID oral, treatment day 1 to 4
[31] = male mice, 50 mg/kg/BID oral, treatment day 1 to 8
[32] = male mice, 50 mg/kg/BID oral, treatment day 1 to 11
[33] = male mice, 50 mg/kg/BID oral, treatment day 1 to 14
[34] = oral, twice daily, 25 and 50 mg/kg, 2 weeks, mice

Method: Each group contained 6 mice. The animals were analyzed throughout the study, and blood and tissues were analyzed at the end of the study.

COC(=O)C1=CNC=C(C(=O)OC)C1c1ccc(F)c(C(F)(F)F)c1 [Compound 103, Dimethyl 4-(4-fluoro-3-(trifluoromethyl)phenyl)-1,4-dihydropyridine-3,5-dicarboxylate]
decrease in white blood cells (WBC) (25 mg/kg and 50 mg/kg treated male and female mice, statistically significant): up to 3.4 fold
Hematological assessment, other parameters [1]: No other toxicologically significant changes were detected
Histopathology analysis [1]: did not detect any differences with controls
Organ weights [1]: not altered
gross pathology [1]: no obvious gross pathology
Body weight of female mice, Mean [2]: 20.33
Body weight of male mice, Mean [2]: 18.30
Body weight of female mice, Mean [3]: 21.03
Body weight of male mice, Mean [3]: 17.65
Body weight of female mice, Mean [4]: 21.48
Body weight of male mice, Mean [4]: 19.12
Body weight of female mice, Mean [5]: 21.52
Body weight of male mice, Mean [5]: 18.95
Body weight of female mice, Mean [6]: 21.93
Body weight of male mice, Mean [6]: 19.27
Body weight of female mice, Mean [7]: 20.47
Body weight of male mice, Mean [7]: 18.75
Body weight of female mice, Mean [8]: 20.37
Body weight of male mice, Mean [8]: 18.63
Body weight of female mice, Mean [9]: 21.13
Body weight of male mice, Mean [9]: 19.52
Body weight of female mice, Mean [10]: 21.20
Body weight of male mice, Mean [10]: 19.32
Body weight of female mice, Mean [11]: 21.73
Body weight of male mice, Mean [11]: 19.85
Organ weights relative to body weight (%), Adrenals [12]: 0.038%
Organ weights relative to body weight (%), Brain [12]: 2.217%
Organ weights relative to body weight (%), Heart [12]: 0.990%
Organ weights relative to body weight (%), Kidneys [12]: 1.379%
Organ weights relative to body weight (%), Liver [12]: 6.436%
Organ weights relative to body weight (%), Ovaries [12]: 0.077%
Organ weights relative to body weight (%), Spleen [12]: 0.672*↑ %
Organ weights relative to body weight (%), Thymus [12]: 0.200%
Organ weights relative to body weight (%), U [12]: 0.321%
ALB [13]: 2.60*↓ g/dL
ALT [13]: 40.03 U/L
AST [13]: 84.12 U/L
BUN [13]: 19.24 mg/dL
Basophils [13]: 0.00
CREA [13]: 0.13 mg/dL
Eosinophils [13]: 0.00
GLU [13]: 153.02 mg/dL
HCT [13]: 28.87%
HGB [13]: 12.97 g/dL
LDLC [13]: 9.31 mg/dL
Lympthocytes [13]: 82.00
MCH [13]: 21.10*↓ pg
MCHC [13]: 44.93*↓ g/dL
MCV [13]: 46.97*↑ fL
Monocytes [13]: 1.00
Neutrophils [13]: 17.00
PLT [13]: 616.67 10^3/μl
RBC [13]: 6.15
Reticuloxyte Count [13]: 2.63
TBIL [13]: 0.12 mg/dL
TGL [13]: 48.73 mg/dL
TP [13]: 4.12 g/dL
Urea [13]: 41.23 mg/dL
WBC [13]: 3.73*↓ 10^3/μl
Food consumption, Average Feed Intake/Animal [14]: 9.4 g/animal
Body weight gain (%) [14]: −3.53%
Food consumption, Average Feed Intake/Animal [15]: 12.8 g/animal
Body weight gain (%) [15]: 4.49%
Food consumption, Average Feed Intake/Animal [16]: 10.3 g/animal
Body weight gain (%) [16]: 3.54%
Food consumption, Average Feed Intake/Animal [17]: 9.5 g/animal
Body weight gain (%) [17]: 5.27%
ALB [18]: 2.55*↓ g/dL
ALP [18]: 254.38 U/L
ALT [18]: 55.57 U/L
AST [18]: 92.78 U/L
BUN [18]: 22.71 mg/dL
Basophils [18]: 0.00
CREA [18]: 0.12 mg/dL
Eosinophils [18]: 0.00
GLU [18]: 165.87 mg/dL
HCT [18]: 28.73%
HGB [18]: 13.67 g/dL
LDLC [18]: 8.23 mg/dL
Lympthocytes [18]: 84.00
MCH [18]: 21.23 pg
MCHC [18]: 45.37*↓ g/dL
MCV [18]: 46.83*↑ fL
Monocytes [18]: 1.33
Neutrophils [18]: 14.67
PLT [18]: 733.00 10^3/μl
RBC [18]: 6.14
Reticuloxyte Count [18]: 2.67
TBIL [18]: 0.14 mg/dL
TGL [18]: 59.97 mg/dL
TP [18]: 3.89 g/dL
Urea [18]: 48.65 mg/dL
WBC [18]: 2.17*↓ 10^3/μl
Food consumption, Average Feed Intake/Animal [19]: 9.1 g/animal
Body weight gain (%) [19]: −0.68%
Food consumption, Average Feed Intake/Animal [20]: 12.8 g/animal
Body weight gain (%) [20]: 4.10%
Food consumption, Average Feed Intake/Animal [21]: 8.7 g/animal
Body weight gain (%) [21]: 3.03%
Food consumption, Average Feed Intake/Animal [22]: 9.8 g/animal
Body weight gain (%) [22]: 5.87%
Organ weights relative to body weight (%), Adrenals [23]: 0.035%
Organ weights relative to body weight (%), Brain [23]: 2.175%
Organ weights relative to body weight (%), Heart [23]: 0.532%
Organ weights relative to body weight (%), Kidneys [23]: 1.375%
Organ weights relative to body weight (%), Liver [23]: 7.356%
Organ weights relative to body weight (%), Ovaries [23]: 0.066%
Organ weights relative to body weight (%), Spleen [23]: 0.490%
Organ weights relative to body weight (%), Thymus [23]: 0.220%
Organ weights relative to body weight (%), U [23]: 0.277%
clinical chemistry assessment (male and female mice, 25 and 50 mg/kg BID, 2 weeks): no significant toxicological change
ALB [24]: 2.66
ALP [24]: 207.96
ALT [24]: 42.36
AST [24]: 79.38
BUN [24]: 19.73
Basophils [24]: 0.00
CREA [24]: 0.14
Eosinophils [24]: 0.67
GLU [24]: 157.88 mg/dL
HCT [24]: 31.43%
HGB [24]: 15.37 g/dL
LDLC [24]: 10.02 mg/dL
Lymphocytes [24]: 82.33
MCH [24]: 23.27 pg
MCHC [24]: 48.87 g/dL
MCV [24]: 47.70 fL
Monosytes [24]: 1.33
Neutrophils [24]: 15.67
Organ weights relative to body weight (%), Adrenals [24]: 0.024%
Organ weights relative to body weight (%), Brain [24]: 2.065%
Organ weights relative to body weight (%), Epididy [24]: 0.333%
Organ weights relative to body weight (%), Heart [24]: 0.500%
Organ weights relative to body weight (%), Kidneys [24]: 1.490%
Organ weights relative to body weight (%), Liver [24]: 7.093%
Organ weights relative to body weight (%), Spleen [24]: 0.351%
Organ weights relative to body weight (%), Testes [24]: 0.582%
Organ weights relative to body weight (%), Thy [24]: 0.136%
PLT [24]: 591.33 10^3/μl
RBC [24]: 6.59
Reticuloxyte Count [24]: 2.90
TBIL [24]: 0.09*↓ mg/dL
TGL [24]: 73.46 mg/dL
TP [24]: 4.13*↑ g/dL
Urea [24]: 42.29 mg/dL
WBC [24]: 3.70*↓ 10^3/μl
Food consumption, Average Feed Intake/Animal [25]: 9.9 g/animal
Body weight gain (%) [25]: 3.45%
Food consumption, Average Feed Intake/Animal [26]: 14.8 g/animal
Body weight gain (%) [26]: 5.68%
Food consumption, Average Feed Intake/Animal [27]: 9.5 g/animal
Body weight gain (%) [27]: 5.86%
Food consumption, Average Feed Intake/Animal [28]: 10.4 g/animal
Body weight gain (%) [28]: 7.91%
ALB [29]: 2.43
ALP [29]: 180.63
ALT [29]: 59.72
AST [29]: 88.76
BUN [29]: 22.97
Basophils [29]: 0.00
CREA [29]: 0.12*↓
Eosinophils [29]: 0.00
GLU [29]: 152.77 mg/dL
HCT [29]: 30.70%
HGB [29]: 13.73 g/dL
LDLC [29]: 9.84 mg/dL
Lymphocytes [29]: 78.00
MCH [29]: 21.70 pg
MCHC [29]: 44.77 g/dL
MCV [29]: 48.40*↑ fL
Monosytes [29]: 2.00
Neutrophils [29]: 20.00
Organ weights relative to body weight (%), Adrenals [29]: 0.030%
Organ weights relative to body weight (%), Brain [29]: 2.017%
Organ weights relative to body weight (%), Epididy [29]: 0.298%
Organ weights relative to body weight (%), Heart [29]: 0.541%
Organ weights relative to body weight (%), Kidneys [29]: 1.467%
Organ weights relative to body weight (%), Liver [29]: 7.014%
Organ weights relative to body weight (%), Spleen [29]: 0.461%
Organ weights relative to body weight (%), Testes [29]: 0.773%
Organ weights relative to body weight (%), Thy [29]: 0.116%
PLT [29]: 661.00 10^3/μl
RBC [29]: 6.34
Reticuloxyte Count [29]: 2.67
TBIL [29]: 0.08*↓ mg/dL
TGL [29]: 84.42 mg/dL
TP [29]: 4.19*↑ g/dL
Urea [29]: 47.30 mg/dL
WBC [29]: 2.27*↓ 10^3/μl
Food consumption, Average Feed Intake/Animal [30]: 8.7 g/animal
Body weight gain (%) [30]: −0.49*1%
Food consumption, Average Feed Intake/Animal [31]: 14.4 g/animal
Body weight gain (%) [31]: 3.28%
Food consumption, Average Feed Intake/Animal [32]: 9.4 g/animal
Body weight gain (%) [32]: 3.60%
Food consumption, Average Feed Intake/Animal [33]: 11.0 g/animal
Body weight gain (%) [33]: 6.21%
body weight and body weight gain [34]: did not change
clinical signs [34]: No abnormal clinical signs were detected
survival [34]: all animals survived to study termination
tolerable dose (twice daily for 14 consecutive days, oral, C57BL/6 mice): > 50 mg/kg/BID
